# Test results as given in ChEMBL document CHEMBL3885881, “DrugMatrix”.
# Species: Rattus norvegicus
# Experiment: DrugMatrix - Regimen: Daily Repeat
# Type: toxicity, organism-based, Sprague-Dawley
# Parameters: regimen Daily Repeat, gender Male, age 6-8 weeks
# Settings: in vivo, po, route oral GAVAGE, […]; for ABSOLUTE BASOPHIL / ABSOLUTE EOSINOPHIL / ABSOLUTE LYMPHOCYTE / ABSOLUTE MONOCYTE / ABSOLUTE SEGMENTED NEUTROPHIL / BASOPHIL / EOSINOPHIL / ERYTHROCYTE COUNT / HEMATOCRIT / HEMOGLOBIN / LEUKOCYTE COUNT / LYMPHOCYTE / MEAN CORPUSCULAR HEMOGLOBIN / MEAN CORPUSCULAR HEMOGLOBIN CONCENTRATION / MEAN CORPUSCULAR VOLUME / MONOCYTE / NEUTROPHIL / NUCLEATED RED BLOOD CELLS / PLATELET COUNT: tissue Blood; for ALANINE AMINOTRANSFERASE / ALBUMIN / ALKALINE PHOSPHATASE / ASPARTATE AMINOTRANSFERASE / BLOOD UREA NITROGEN / CARBON DIOXIDE / CHLORIDE / CHOLESTEROL / CREATINE PHOSPHOKINASE / CREATININE / GLUCOSE / LACTATE DEHYDROGENASE / LIPASE / PHOSPHORUS / POTASSIUM / SODIUM / TOTAL BILIRUBIN / TOTAL PROTEIN / URIC ACID: tissue Plasma
# [1] = 0 mg/kg, 72 h, dose level Control, time 3 day
# [2] = 0 mg/kg, 120 h, dose level Control, time 5 day
# [3] = 80 mg/kg, 72 h, dose level Low, time 3 day
smiles,measurement,setting,value
CC(C)(Oc1ccc(C2CCCc3ccccc32)cc1)C(=O)O (centres undefined) [NAFENOPIN],ABSOLUTE BASOPHIL,[1],0 CELLS/uL
same,ABSOLUTE EOSINOPHIL,[1],47.67 CELLS/uL
same,ABSOLUTE LYMPHOCYTE,[1],11079 CELLS/uL
same,ABSOLUTE MONOCYTE,[1],251.67 CELLS/uL
same,ABSOLUTE SEGMENTED NEUTROPHIL,[1],1505 CELLS/uL
same,BASOPHIL,[1],0%
same,EOSINOPHIL,[1],0.33%
same,ERYTHROCYTE COUNT,[1],5.31 x10E6/uL
same,HEMATOCRIT,[1],32.87%
same,HEMOGLOBIN,[1],12.27 G/DL
same,LEUKOCYTE COUNT,[1],12.88 x10E3/uL
same,LYMPHOCYTE,[1],86.17%
same,MEAN CORPUSCULAR HEMOGLOBIN,[1],23.2 pg
same,MEAN CORPUSCULAR HEMOGLOBIN CONCENTRATION,[1],37.37 G/DL
same,MEAN CORPUSCULAR VOLUME,[1],62.03 fL
same,MONOCYTE,[1],2%
same,NEUTROPHIL,[1],11.5%
same,NUCLEATED RED BLOOD CELLS,[1],0 /100WBC
same,PLATELET COUNT,[1],956.5 x10E3/uL
same,ALANINE AMINOTRANSFERASE,[1],69.67 u/L
same,ALBUMIN,[1],4.15 G/DL
same,ALKALINE PHOSPHATASE,[1],415.33 u/L
same,ASPARTATE AMINOTRANSFERASE,[1],93.17 u/L
same,BLOOD UREA NITROGEN,[1],17.33 mg/dL
same,CARBON DIOXIDE,[1],27.33 mmol/L
same,CHLORIDE,[1],100.17 MEQ/L
same,CHOLESTEROL,[1],76.5 mg/dL
same,CREATINE PHOSPHOKINASE,[1],587 u/L
same,CREATININE,[1],0.25 mg/dL
same,GLUCOSE,[1],155.5 mg/dL
same,LACTATE DEHYDROGENASE,[1],343.5 u/L
same,LIPASE,[1],11.17 u/L
same,PHOSPHORUS,[1],11.77 mg/dL
same,POTASSIUM,[1],6.51 MEQ/L
same,SODIUM,[1],140.93 MEQ/L
same,TOTAL BILIRUBIN,[1],0.2 mg/dL
same,TOTAL PROTEIN,[1],5.87 G/DL
same,URIC ACID,[1],1.43 mg/dL
same,ABSOLUTE BASOPHIL,[2],0 CELLS/uL
same,ABSOLUTE EOSINOPHIL,[2],22.67 CELLS/uL
same,ABSOLUTE LYMPHOCYTE,[2],12729.33 CELLS/uL
same,ABSOLUTE MONOCYTE,[2],424.67 CELLS/uL
same,ABSOLUTE SEGMENTED NEUTROPHIL,[2],2006.67 CELLS/uL
same,BASOPHIL,[2],0%
same,EOSINOPHIL,[2],0.17%
same,ERYTHROCYTE COUNT,[2],5.48 x10E6/uL
same,HEMATOCRIT,[2],33.32%
same,HEMOGLOBIN,[2],12.73 G/DL
same,LEUKOCYTE COUNT,[2],15.18 x10E3/uL
same,LYMPHOCYTE,[2],83.83%
same,MEAN CORPUSCULAR HEMOGLOBIN,[2],23.25 pg
same,MEAN CORPUSCULAR HEMOGLOBIN CONCENTRATION,[2],38.22 G/DL
same,MEAN CORPUSCULAR VOLUME,[2],60.85 fL
same,MONOCYTE,[2],2.83%
same,NEUTROPHIL,[2],13.17%
same,NUCLEATED RED BLOOD CELLS,[2],0 /100WBC
same,PLATELET COUNT,[2],909.83 x10E3/uL
same,ALANINE AMINOTRANSFERASE,[2],57.67 u/L
same,ALBUMIN,[2],4.03 G/DL
same,ALKALINE PHOSPHATASE,[2],472.33 u/L
same,ASPARTATE AMINOTRANSFERASE,[2],80.83 u/L
same,BLOOD UREA NITROGEN,[2],14.67 mg/dL
same,CARBON DIOXIDE,[2],31.83 mmol/L
same,CHLORIDE,[2],96 MEQ/L
same,CHOLESTEROL,[2],68 mg/dL
same,CREATINE PHOSPHOKINASE,[2],281.67 u/L
same,CREATININE,[2],0.19 mg/dL
same,GLUCOSE,[2],147.33 mg/dL
same,LACTATE DEHYDROGENASE,[2],210.83 u/L
same,LIPASE,[2],11 u/L
same,PHOSPHORUS,[2],11.63 mg/dL
same,POTASSIUM,[2],6.06 MEQ/L
same,SODIUM,[2],139.37 MEQ/L
same,TOTAL BILIRUBIN,[2],0.17 mg/dL
same,TOTAL PROTEIN,[2],5.82 G/DL
same,URIC ACID,[2],1.12 mg/dL
same,ABSOLUTE BASOPHIL,[3],0 CELLS/uL
same,ABSOLUTE EOSINOPHIL,[3],91 CELLS/uL
same,ABSOLUTE LYMPHOCYTE,[3],10987.33 CELLS/uL
same,ABSOLUTE MONOCYTE,[3],229 CELLS/uL
same,ABSOLUTE SEGMENTED NEUTROPHIL,[3],2392.67 CELLS/uL
same,BASOPHIL,[3],0%
same,EOSINOPHIL,[3],0.67%
same,ERYTHROCYTE COUNT,[3],5.31 x10E6/uL
same,HEMATOCRIT,[3],33.1%
same,HEMOGLOBIN,[3],12.4 G/DL
same,LEUKOCYTE COUNT,[3],13.7 x10E3/uL
same,LYMPHOCYTE,[3],80.33%
same,MEAN CORPUSCULAR HEMOGLOBIN,[3],23.37 pg
same,MEAN CORPUSCULAR HEMOGLOBIN CONCENTRATION,[3],37.47 G/DL
same,MEAN CORPUSCULAR VOLUME,[3],62.37 fL
same,MONOCYTE,[3],1.67%
same,NEUTROPHIL,[3],17.33%
same,NUCLEATED RED BLOOD CELLS,[3],0 /100WBC
same,PLATELET COUNT,[3],1097 x10E3/uL
same,ALANINE AMINOTRANSFERASE,[3],88 u/L
same,ALBUMIN,[3],4.7 G/DL
same,ALKALINE PHOSPHATASE,[3],593 u/L
same,ASPARTATE AMINOTRANSFERASE,[3],109.67 u/L
same,BLOOD UREA NITROGEN,[3],15.33 mg/dL
same,CARBON DIOXIDE,[3],25.67 mmol/L
same,CHLORIDE,[3],102.33 MEQ/L
same,CHOLESTEROL,[3],44.33 mg/dL
same,CREATINE PHOSPHOKINASE,[3],372 u/L
same,CREATININE,[3],0.23 mg/dL
same,GLUCOSE,[3],141 mg/dL
same,LACTATE DEHYDROGENASE,[3],370.67 u/L
same,LIPASE,[3],10.67 u/L
same,PHOSPHORUS,[3],12.4 mg/dL
same,POTASSIUM,[3],6.4 MEQ/L
same,SODIUM,[3],144.37 MEQ/L
same,TOTAL BILIRUBIN,[3],0.1 mg/dL
same,TOTAL PROTEIN,[3],5.57 G/DL
same,URIC ACID,[3],1.3 mg/dL
